Experimental data: patent US8962641B2, “Pyrimidine-substituted pyrrolidine derivatives, pharmaceutical compositions and uses thereof” (Boehringer Ingelheim International GmbH, priority 2013, dated 2015)

molecular target: human ACC2 (Homo sapiens (Human), UniProt O00763); experiment: ACC2 assay (spectrophotometric 384 well assay, NADH-linked kinetic method); assay type: biochemical; details: not given
Procedure: Spectrophotometric 384 Well Assay
Malonyl CoA formation by acetyl CoA carboxylases is stoichometrically linked to the consumption of ATP. ACC2 activity is measured in a NADH-linked kinetic method measuring ADP generated during the ACC reaction using a coupled lactate dehydrogenase/pyruvate kinase reaction.
The protein is then expressed in insect cells using a baculoviral expression system. Protein purification is performed by anion exchange.
All compounds are dissolved in dimethyl sulfoxide (DMSO) to a concentration of 10 mM.
The enzymatic reaction is then started by addition of a mixture of NADH, acetyl Coenzyme A (both 200 μM f.c.) and ATP (500 uM f.c.). The decrease of the optical density (slope S) is then determined at 25° C. at a wavelength of 340 nm over 15 minutes in a spectrophotometric reader.
Each assay microtiter plate contains wells with vehicle instead of compound as controls for the non-inhibited enzyme (100% CTL; ‘HIGH’) and wells without acetyl-CoA as controls for non-specific NADH degradation (0% CTL; ‘LOW’).

Chain of human ACC2 (O00763 129-2458): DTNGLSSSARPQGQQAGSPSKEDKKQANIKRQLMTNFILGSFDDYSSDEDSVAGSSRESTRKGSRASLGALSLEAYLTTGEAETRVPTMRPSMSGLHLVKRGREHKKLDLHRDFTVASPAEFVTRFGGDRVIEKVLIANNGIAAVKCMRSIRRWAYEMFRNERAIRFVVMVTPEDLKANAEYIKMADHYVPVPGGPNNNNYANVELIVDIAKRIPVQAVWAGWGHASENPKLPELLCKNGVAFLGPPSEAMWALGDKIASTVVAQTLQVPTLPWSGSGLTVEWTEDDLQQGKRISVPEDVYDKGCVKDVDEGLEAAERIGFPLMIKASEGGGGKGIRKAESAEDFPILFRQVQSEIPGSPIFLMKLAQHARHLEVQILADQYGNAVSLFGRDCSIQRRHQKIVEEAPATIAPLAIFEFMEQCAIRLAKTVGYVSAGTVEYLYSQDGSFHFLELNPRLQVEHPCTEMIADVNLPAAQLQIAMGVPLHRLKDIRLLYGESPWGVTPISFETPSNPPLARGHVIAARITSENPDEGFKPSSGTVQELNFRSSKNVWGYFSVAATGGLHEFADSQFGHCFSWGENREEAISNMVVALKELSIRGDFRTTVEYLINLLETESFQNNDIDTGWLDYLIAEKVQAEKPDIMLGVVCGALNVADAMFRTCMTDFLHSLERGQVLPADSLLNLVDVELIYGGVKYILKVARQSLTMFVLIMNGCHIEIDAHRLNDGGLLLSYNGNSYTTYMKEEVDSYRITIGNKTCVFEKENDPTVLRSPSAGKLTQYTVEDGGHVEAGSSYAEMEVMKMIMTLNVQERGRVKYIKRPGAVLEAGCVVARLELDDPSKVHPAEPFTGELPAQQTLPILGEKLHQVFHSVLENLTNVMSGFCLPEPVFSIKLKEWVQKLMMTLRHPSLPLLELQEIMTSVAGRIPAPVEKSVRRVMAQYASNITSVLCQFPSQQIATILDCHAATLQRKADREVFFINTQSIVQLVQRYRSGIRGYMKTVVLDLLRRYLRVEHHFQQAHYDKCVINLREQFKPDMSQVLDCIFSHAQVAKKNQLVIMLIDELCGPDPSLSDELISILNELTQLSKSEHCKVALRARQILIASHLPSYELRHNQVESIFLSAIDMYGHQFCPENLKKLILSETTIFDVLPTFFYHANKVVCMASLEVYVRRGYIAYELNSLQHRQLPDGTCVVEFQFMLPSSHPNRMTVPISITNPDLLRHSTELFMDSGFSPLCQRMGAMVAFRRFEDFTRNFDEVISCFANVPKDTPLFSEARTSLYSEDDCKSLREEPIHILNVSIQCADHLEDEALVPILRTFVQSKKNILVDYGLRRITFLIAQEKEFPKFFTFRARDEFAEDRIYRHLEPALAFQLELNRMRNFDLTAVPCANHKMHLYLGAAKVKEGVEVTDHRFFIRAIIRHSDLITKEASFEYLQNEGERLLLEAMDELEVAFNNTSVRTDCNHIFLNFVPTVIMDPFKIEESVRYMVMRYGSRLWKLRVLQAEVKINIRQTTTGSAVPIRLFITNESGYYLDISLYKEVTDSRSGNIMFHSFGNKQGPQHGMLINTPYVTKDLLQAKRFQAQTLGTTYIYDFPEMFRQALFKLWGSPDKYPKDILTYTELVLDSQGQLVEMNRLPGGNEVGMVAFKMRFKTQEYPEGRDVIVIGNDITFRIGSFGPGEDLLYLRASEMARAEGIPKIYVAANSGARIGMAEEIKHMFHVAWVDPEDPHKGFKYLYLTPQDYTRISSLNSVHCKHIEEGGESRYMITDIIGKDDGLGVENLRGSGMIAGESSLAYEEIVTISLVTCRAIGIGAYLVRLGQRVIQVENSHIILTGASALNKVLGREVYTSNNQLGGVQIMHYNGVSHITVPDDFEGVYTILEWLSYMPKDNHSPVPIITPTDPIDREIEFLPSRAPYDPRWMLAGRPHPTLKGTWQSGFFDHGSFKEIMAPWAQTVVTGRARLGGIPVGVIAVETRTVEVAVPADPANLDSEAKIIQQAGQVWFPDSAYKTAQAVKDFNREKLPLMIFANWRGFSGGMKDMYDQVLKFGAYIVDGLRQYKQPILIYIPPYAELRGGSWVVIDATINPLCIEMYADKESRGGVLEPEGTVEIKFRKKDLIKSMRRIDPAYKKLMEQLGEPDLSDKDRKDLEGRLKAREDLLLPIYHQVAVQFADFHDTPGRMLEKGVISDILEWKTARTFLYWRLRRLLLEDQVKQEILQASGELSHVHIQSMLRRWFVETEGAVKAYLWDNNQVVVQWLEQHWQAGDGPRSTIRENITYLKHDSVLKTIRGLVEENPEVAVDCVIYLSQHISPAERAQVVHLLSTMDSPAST

Row | Structure (SMILES) | IC50 [nM]
1 | C[C@H](NC(=O)C1CC1)c1ccc(O[C@@H]2CCN(c3ccnc(N(C)CC(F)F)n3)C2)cc1 [Example 2.1, N—((S)-1-(4-((R)-1-(2-((2,2-difluoroethyl)(methyl)amino)pyrimidin-4-yl)pyrrolidin-3-yloxy)phenyl)ethyl)cyclopropanecarboxamide] | 65

same assay, conditions: hACC2 construct lacking 128 N-terminal amino acids; coupled lactate dehydrogenase/pyruvate kinase reaction, 340 nm, 25° C.

Row | IC50 [nM] | Structure (SMILES)
2 | 489 | CC(=O)N[C@@H](C)c1ccc(O[C@@H]2CCN(c3cnc(NC4CCC4)nc3)C2)cc1 [Example 1.1, N—((S)-1-(4-((R)-1-(2-(cyclobutylamino)pyrimidin-5-yl)pyrrolidin-3-yloxy)phenyl)ethyl)acetamide]
3 | 565 | CC(=O)N[C@@H](C)c1ccc(OC2CCN(c3cnc(OC4CCC4)nc3)C2)cc1 (some centres unmarked) [Example 1.2]
4 | 964 | CC(=O)N[C@@H](C)c1ccc(OC2CCN(c3cnc(OCC4CC4)nc3)C2)cc1 (some centres unmarked) [Example 1.3]
5 | 547 | CC(=O)Nc1nc(C)c(C(=O)N[C@@H](C)c2ccc(OC3CCN(c4ccnc(N5CCOCC5)n4)C3)cc2)s1 (some centres unmarked) [Example 2.3]
6 | 208 | Cc1nocc1C(=O)N[C@@H](C)c1ccc(OC2CCN(c3ccnc(N4CCOCC4)n3)C2)cc1 (some centres unmarked) [Example 2.4]
7 | 320 | C[C@H](NC(=O)c1cnco1)c1ccc(OC2CCN(c3ccnc(N4CCOCC4)n3)C2)cc1 (some centres unmarked) [Example 2.6]
8 | 455 | C[C@H](NC(=O)c1cn[nH]c1)c1ccc(OC2CCN(c3ccnc(N4CCOCC4)n3)C2)cc1 (some centres unmarked) [Example 2.7]
9 | 115 | CC(=O)Nc1nc(C)c(C(=O)N[C@@H](C)c2ccc(OC3CCN(c4ccnc(N(C)CC(F)F)n4)C3)cc2)s1 (some centres unmarked) [Example 2.10]
10 | 115 | COCC(=O)Nc1nc(C)c(C(=O)N[C@@H](C)c2ccc(OC3CCN(c4ccnc(N(C)CC(F)F)n4)C3)cc2)s1 (some centres unmarked) [Example 2.11]
11 | 90 | Cc1oncc1C(=O)N[C@@H](C)c1ccc(OC2CCN(c3ccnc(N(C)CC(F)F)n3)C2)cc1 (some centres unmarked) [Example 2.12]
12 | 85 | CCC(=O)N[C@@H](C)c1ccc(OC2CCN(c3ccnc(N(C)CC)n3)C2)cc1 (some centres unmarked) [Example 2.13]
13 | 63 | CCN(C)c1nccc(N2CCC(Oc3ccc([C@H](C)NC(=O)C4CC4)cc3)C2)n1 (some centres unmarked) [Example 2.14]
14 | 118 | CCN(C)c1nccc(N2CCC(Oc3ccc([C@H](C)NC(=O)c4cn[nH]c4)cc3)C2)n1 (some centres unmarked) [Example 2.17]
15 | 130 | CCN(C)c1nccc(N2CCC(Oc3ccc([C@H](C)NC(=O)c4cnoc4C)cc3)C2)n1 (some centres unmarked) [Example 2.18]
16 | 39 | CC(=O)Nc1nc(C)c(C(=O)N[C@@H](C)c2ccc(OC3CCN(c4ncnc(OCC5CC5)c4F)C3)cc2)s1 (some centres unmarked) [Example 2.19]
17 | 87 | C[C@H](NC(=O)c1cnco1)c1ccc(OC2CCN(c3ncnc(OCC4CC4)c3F)C2)cc1 (some centres unmarked) [Example 2.21]
18 | 103 | COc1c(OCC2CC2)ncnc1N1CC[C@@H](Oc2ccc([C@H](C)NC(=O)c3cnco3)cc2)C1 [Example 2.27]
19 | 528 | COc1c(OCC2CC2)ncnc1N1CC[C@@H](Oc2ccc([C@H](C)NC(=O)C3CC(F)C3)cc2)C1 (some centres unmarked) [Example 2.30]
20 | 809 | COc1c(OCC2CC2)ncnc1N1CC[C@@H](Oc2ccc([C@H](C)NC(=O)c3oc(NC(C)=O)nc3C)cc2)C1 [Example 2.32]
21 | 40 | C[C@H](NC(=O)N(C)C)c1ccc(OC2CCN(c3ccnc(N(C)CC(F)F)n3)C2)cc1 (some centres unmarked) [Example 3.1]
22 | 227 | C[C@H](NC(=O)N(C)C)c1ccc(OC2CCN(c3ccnc(N4CCOCC4)n3)C2)cc1 (some centres unmarked) [Example 3.2]
23 | 299 | C[C@H](NC(=O)Nc1ccon1)c1ccc(OC2CCN(c3ccnc(N4CCOCC4)n3)C2)cc1 (some centres unmarked) [Example 3.5]
24 | 605 | C[C@H](NC(=O)N1CCOCC1)c1ccc(OC2CCN(c3ccnc(N4CCOCC4)n3)C2)cc1 (some centres unmarked) [Example 3.6]
25 | 374 | CCN(C)C(=O)N[C@@H](C)c1ccc(OC2CCN(c3ccnc(N4CCOCC4)n3)C2)cc1 (some centres unmarked) [Example 3.7]
26 | 117 | CCN(C)c1nccc(N2CCC(Oc3ccc([C@H](C)NC(=O)N(C)C)cc3)C2)n1 (some centres unmarked) [Example 3.9]
27 | 45 | C[C@H](NC(=O)N(C)C)c1ccc(OC2CCN(c3ncnc(OCC4CC4)c3F)C2)cc1 (some centres unmarked) [Example 3.10]
28 | 203 | C[C@H](NC(=O)N1CCOCC1)c1ccc(OC2CCN(c3ncnc(OCC4CC4)c3F)C2)cc1 (some centres unmarked) [Example 3.12]
29 | 50 | C[C@H](NC(=O)Nc1ccon1)c1ccc(OC2CCN(c3ncnc(OCC4CC4)c3F)C2)cc1 (some centres unmarked) [Example 3.13]
30 | 120 | CCNC(=O)N[C@@H](C)c1ccc(OC2CCN(c3ncnc(OCC4CC4)c3F)C2)cc1 (some centres unmarked) [Example 3.14]

The remaining lines, values behind:

Row | Structure (SMILES) | IC50 [nM]
31 | CCC(=O)Nc1nc(C)c(C(=O)N[C@@H](C)c2ccc(O[C@@H]3CCN(c4ncc(OCC5CC5(F)F)cn4)C3)cc2)s1 (some centres unmarked) [Example 1.4] | 101
32 | C[C@H](NC(=O)C1CC1)c1ccc(OC2CCN(c3ccnc(N4CCOCC4)n3)C2)cc1 (some centres unmarked) [Example 2.2] | 359
33 | C[C@H](NC(=O)c1ccns1)c1ccc(OC2CCN(c3ccnc(N4CCOCC4)n3)C2)cc1 (some centres unmarked) [Example 2.5] | 535
34 | CCN(C)c1nccc(N2CCC(Oc3ccc([C@H](C)NC(=O)c4sc(NC(C)=O)nc4C)cc3)C2)n1 (some centres unmarked) [Example 2.8] | 245
35 | CCN(C)c1nccc(N2CCC(Oc3ccc([C@H](C)NC(=O)c4sc(NC(=O)COC)nc4C)cc3)C2)n1 (some centres unmarked) [Example 2.9] | 300
36 | C[C@H](NC(=O)c1cn[nH]c1)c1ccc(OC2CCN(c3ccnc(N(C)CC(F)F)n3)C2)cc1 (some centres unmarked) [Example 2.15] | 70
37 | CCC(=O)N[C@@H](C)c1ccc(OC2CCN(c3ccnc(N(C)CC(F)F)n3)C2)cc1 (some centres unmarked) [Example 2.16] | 45
38 | C[C@H](NC(=O)c1cn[nH]c1)c1ccc(OC2CCN(c3ncnc(OCC4CC4)c3F)C2)cc1 (some centres unmarked) [Example 2.20] | 53
39 | Cc1oncc1C(=O)N[C@@H](C)c1ccc(OC2CCN(c3ncnc(OCC4CC4)c3F)C2)cc1 (some centres unmarked) [Example 2.22] | 48
40 | CCC(=O)N[C@@H](C)c1ccc(OC2CCN(c3ncnc(OCC4CC4)c3F)C2)cc1 (some centres unmarked) [Example 2.23] | 144
41 | COc1c(OCC2CC2)ncnc1N1CC[C@@H](Oc2ccc([C@H](C)NC(=O)C3(C)CC3)cc2)C1 [Example 2.29] | 204
42 | COc1c(OCC2CC2)ncnc1N1CC[C@@H](Oc2ccc([C@H](C)NC(=O)c3coc(NC(C)=O)n3)cc2)C1 [Example 2.33] | 908
43 | CCNC(=O)N[C@@H](C)c1ccc(OC2CCN(c3ccnc(N4CCOCC4)n3)C2)cc1 (some centres unmarked) [Example 3.3] | 445
44 | C[C@H](NC(=O)N1CCC1)c1ccc(OC2CCN(c3ccnc(N4CCOCC4)n3)C2)cc1 (some centres unmarked) [Example 3.4] | 1040
45 | CNC(=O)N[C@@H](C)c1ccc(OC2CCN(c3ccnc(N4CCOCC4)n3)C2)cc1 (some centres unmarked) [Example 3.8] | 260
46 | CNC(=O)N[C@@H](C)c1ccc(OC2CCN(c3ncnc(OCC4CC4)c3F)C2)cc1 (some centres unmarked) [Example 3.11] | 110
47 | C[C@H](NC(=O)N(C)C)c1ccc(OC2CCN(c3ncnc(OCC(C)(C)O)c3F)C2)cc1 (some centres unmarked) [Example 3.15] | 278
48 | C[C@H](NC(=O)N(C)C)c1ccc(O[C@H]2CCN(c3nc(N4CCC5(CC5)C4)ncc3F)C2)cc1 [Example 3.16] | 104
49 | CCNC(=O)N[C@@H](C)c1ccc(O[C@@H]2CCN(c3nc(N4CCC5(CC5)C4)ncc3F)C2)cc1 [Example 3.17] | 242
50 | C[C@H](NC(=O)N(C)C)c1ccc(O[C@H]2CCN(c3nc(N4CCOCC4)ncc3F)C2)cc1 [Example 3.18] | 113
